Data as given in patent US20070082892A1, “Benzotriazepine derivatives and their use as gastrin and cholecystokinin receptor ligands” (James Black Foundation Limited, priority 2003, published 2007).

Legend:
[1] = molecular target: T1, human CCK1-receptor (Homo sapiens, UniProt P32238); assay: CCK1 radioligand binding, displacement of [3H]-L-364,718 in CHO-K1 cells; conditions: displacement of [3H]-L-364,718, CHO-K1 cells with cloned human CCK1 receptor; S.E.M's on pKi are ±≦0.1
T1 construct: expressed in transfected cells; host or cells: CHO-K1
T1 sequence (P32238 1-428): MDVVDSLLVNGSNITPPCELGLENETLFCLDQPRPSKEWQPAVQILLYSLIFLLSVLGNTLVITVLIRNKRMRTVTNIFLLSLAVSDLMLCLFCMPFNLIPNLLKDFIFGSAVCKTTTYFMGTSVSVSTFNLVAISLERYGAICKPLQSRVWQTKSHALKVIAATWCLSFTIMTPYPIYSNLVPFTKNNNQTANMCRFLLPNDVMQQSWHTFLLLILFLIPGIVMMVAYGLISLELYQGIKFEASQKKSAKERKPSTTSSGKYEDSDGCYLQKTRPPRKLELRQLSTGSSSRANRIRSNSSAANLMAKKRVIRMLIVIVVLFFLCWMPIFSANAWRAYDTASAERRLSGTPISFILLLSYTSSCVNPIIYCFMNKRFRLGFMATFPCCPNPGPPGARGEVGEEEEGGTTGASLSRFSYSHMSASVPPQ
Procedure: The CCK1 activity of the ligands was assessed in a radioligand binding study, looking at the displacement of [^3H]-L-364,718 from sites in CHO-K1 cells into which the human CCK1-receptor sequence has been cloned. S.E.M's on pKi are ±≦0.1

[2] = molecular target: T2, gastrin (CCK2) receptor (Rattus norvegicus, UniProt P30553); assay: gastrin (CCK2) antagonist activity in an immature rat stomach assay (pentagastrin-stimulated acid secretion); conditions: isolated immature rat stomach, 60 min incubation, cumulative pentagastrin dose-response curves; read-out: CCK2 pKB ± sem (converted)
T2 construct: The oesophagus of immature rats (33-50 g, ca. 21 days old) was ligated; from tissue; host or cells: isolated whole stomach of immature rats
T2 sequence (P30553 1-452): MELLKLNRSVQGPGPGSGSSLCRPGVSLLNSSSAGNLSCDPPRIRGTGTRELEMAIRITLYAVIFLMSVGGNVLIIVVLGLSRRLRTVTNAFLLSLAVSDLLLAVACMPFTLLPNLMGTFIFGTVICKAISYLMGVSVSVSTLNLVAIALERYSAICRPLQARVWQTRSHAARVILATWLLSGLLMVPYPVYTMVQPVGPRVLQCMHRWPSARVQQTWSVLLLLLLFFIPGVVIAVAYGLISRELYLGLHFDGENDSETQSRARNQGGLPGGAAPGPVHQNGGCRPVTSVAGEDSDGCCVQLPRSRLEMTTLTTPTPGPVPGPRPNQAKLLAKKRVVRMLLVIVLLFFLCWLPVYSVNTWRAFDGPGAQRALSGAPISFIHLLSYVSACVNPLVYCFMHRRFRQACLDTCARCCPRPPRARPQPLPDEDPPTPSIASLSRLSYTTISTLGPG

Row | Ki [1] | Kb [2] | Compound
1 | 7940 nM | 2240 nM | O=C(CN1C(=O)N(CC(=O)N2CCCC2)c2ccccc2N(c2ccccc2)C1=O)Nc1ccc(F)cc1 [Example 2, 2-[2,4-Dioxo-1-(2-oxo-2-pyrrolidin-1-yl-ethyl)-5-phenyl-1,2,4,5-tetrahydro-1,3,5-benzotriazepin-3-yl]-N-(4-fluoro-phenyl)-acetamide]
2 | > 10000 nM | 708 nM | O=C(CN1C(=O)N(CC(=O)N2CCCC2)c2ccccc2N(c2ccccc2)C1=O)Nc1cccc(C(=O)O)c1 [Example 3, 3-{2-[2,4-Dioxo-1-(2-oxo-2-pyrrolidin-1-yl-ethyl)-5-phenyl-1,2,4,5-tetrahydro-1,3,5-benzotriazepin-3-yl]-acetylamino}-benzoic acid]
3 | 3980 nM | 43.7 nM | CC(C)(C)C(=O)CN1C(=O)N(CC(=O)Nc2cccc(CC(=O)O)c2)C(=O)N(C2CCCCCC2)c2ccccc21 [Example 8, (3-{2-[1-Cycloheptyl-5-(3,3-dimethyl-2-oxo-butyl)-2,4-dioxo-1,2,4,5-tetrahydro-1,3,5-benzotriazepin-3-yl]-acetylamino}-phenyl)-acetic acid]
4 | 100 nM | 6.76 nM | CC(C)(C)C(=O)CN1C(=O)N(CC(=O)Nc2cccc(SCC(=O)OCc3ccccc3)c2)C(=O)N(C2CCCCCC2)c2ccccc21 [Example 10]
5 | 251 nM | 4.47 nM | CC(C)(C)C(=O)CN1C(=O)N(CC(=O)Nc2cccc(SCC(=O)O)c2)C(=O)N(C2CCCCCC2)c2ccccc21 [Example 11, (3-{2-[1-Cycloheptyl-5-(3,3-dimethyl-2-oxo-butyl)-2,4-dioxo-1,2,4,5-tetrahydro-1,3,5-benzotriazepin-3-yl]-acetylamino}-phenylsulfanyl)-acetic acid]
6 | 126 nM | 3.24 nM | CC(C)(C)C(=O)CN1C(=O)N(CC(=O)Nc2cccc(-c3nc(=O)o[nH]3)c2)C(=O)N(C2CCCCCC2)c2ccccc21 [Example 12, 2-[1-Cycloheptyl-5-(3,3-dimethyl-2-oxo-butyl)-2,4-dioxo-1,2,4,5-tetrahydro-1,3,5-benzotriazepin-3-yl]-N-[3-(5-oxo-2,5-dihydro-[1,2,4]-oxadiazol-3-yl)-phenyl]-acetamide]
7 | 2510 nM | 19.5 nM | CNc1cccc(NC(=O)CN2C(=O)N(CC(=O)C(C)(C)C)c3ccccc3N(C3CCCCC3)C2=O)c1 [Example 13, 2-[1-Cyclohexyl-5-(3,3-dimethyl-2-oxo-butyl)-2,4-dioxo-1,2,4,5-tetrahydro-1,3,5-benzotriazepin-3-yl]-N-(3-methylamino-phenyl)-acetamide]
8 | 2510 nM | 26.3 nM | CC(C)(C)C(=O)CN1C(=O)N(CC(=O)Nc2cccc(CCC(=O)O)c2)C(=O)N(C2CCCCC2)c2ccccc21 [Example 14, 3-(3-{2-[1-Cyclohexyl-5-(3,3-dimethyl-2-oxo-butyl)-2,4-dioxo-1,2,4,5-tetrahydro-1,3,5-benzotriazepin-3-yl]-acetylamino}-phenyl)-propionic acid]
9 | 1580 nM | – | Cc1nc(-c2cccc(NC(=O)CN3C(=O)N(CC(=O)C(C)(C)C)c4ccccc4N(C4CCCCC4)C3=O)c2)cs1 [Example 15, 2-[1-Cyclohexyl-5-(3,3-dimethyl-2-oxo-butyl)-2,4-dioxo-1,2,4,5-tetrahydro-1,3,5-benzotriazepin-3-yl]-N-[3-(2-methyl-thiazol-4-yl)-phenyl]-acetamide]
10 | 2000 nM | – | CN(c1cccc(NC(=O)CN2C(=O)N(CC(=O)C(C)(C)C)c3ccccc3N(C3CCCCC3)C2=O)c1)c1nn[nH]n1 [Example 16, 2-[1-Cyclohexyl-5-(3,3-dimethyl-2-oxo-butyl)-2,4-dioxo-1,2,4,5-tetrahydro-1,3,5-benzotriazepin-3-yl]-N-{3-[methyl-(2H-tetrazol-5-yl)-amino]-phenyl}-acetamide]
11 | – | 87.1 nM | CC(C)(C)C(=O)CN1C(=O)N(CCCC(=O)Nc2cccc(-c3nc(=O)o[nH]3)c2)C(=O)N(C2CCCCC2)c2ccccc21 [Example 19, 4-[1-Cyclohexyl-5-(3,3-dimethyl-2-oxo-butyl)-2,4-dioxo-1,2,4,5-tetrahydro-1,3,5-benzotriazepin-3-yl]-N-[3-(5-oxo-2,5-dihydro-[1,2,4]oxadiazol-3-yl)-phenyl]-butyramide]
